Measurements from patent US20100130457A1, “Phenothiazine Derivatives for Treatment of Asthma” (Immune Control, Inc., priority 2008, published 2010).
Entries after “also recorded” stand apart in the source; their conditions may differ.

Key:
5-HT7 receptor = 5-HT7 receptor (Homo sapiens, UniProt P34969); experiment: Serotonin-receptor binding assay; conditions: 10 μM and 0.1 μM
Excerpt: (§1) The methods employed in this study have been adapted from the scientific literature to maximize reliability and reproducibility. The experiments include contacting a serotonin type 1A, 1B, 1D, 2A, 2B, 2C, 3, 4, 5A, 6, and 7 receptor with a test compound and comparing the level of binding of serotonin or a control compound (e.g., fluphenazine) with that serotonin type 1A, 1B, 1D, 2A, 2B, 2C, 3, 4, 5A, 6, and 7 receptor with the level of serotonin binding or control compound binding with an otherwise identical serotonin type 1A, 1B, 1D, 2A, 2B, 2C, 3, 4, 5A, 6, and 7 receptor not contacted with the test compound. […] The skilled artisan would also appreciate, in view of the disclosure provided herein, that standard binding assays known in the art, or those to be developed in the future, can be used to assess the binding of serotonin or a control compound with a serotonin type 1A, 1B, 1D, 2A, 2B, 2C, 3, 4, 5A, 6, and 7 receptor in the presence or absence of the test compound to identify a useful compound.
(§2) ICI-735 and fluphenazine were tested for selective binding to 1A, 1B, 1D, 2A, 2B, 2C, 3, 4, 5A, 6, and 7 receptors at concentrations of 10 μM and 0.1 μM.

5-HT2A receptor = 5-HT2A receptor (Homo sapiens, UniProt P28223); experiment: Serotonin-receptor binding assay; conditions: 10 μM and 0.1 μM
Excerpt: as §1, §2

5-HT1B receptor = 5-HT1B receptor (Homo sapiens, UniProt P28222); experiment: Serotonin-receptor binding assay; conditions: 10 μM and 0.1 μM
Excerpt: as §1, §2

hCav1.2 = hCav1.2 (Homo sapiens, UniProt Q13936); experiment: Cardiac ion channels expressed in mammalian cells; format: cell-based; conditions: 0.1 μM, 1 μm, 10 μm, and 100 μm
Excerpt: Opening of voltage-gated calcium channels results in influx of calcium ions into the cell. This influx of calcium plays an important role in excitation-contraction coupling in cardiac and skeletal muscle fibers. The reversal potential for calcium is extremely positive, so calcium current is almost always inward, resulting in an action potential plateau in many excitable cells. These channels are the target of calcium channel blocker subtype of antihypertensive drugs. The alpha-1 subunit forms the ion conducting pore, with several modulating auxiliary subunits. Major subtypes of voltage-gated calcium channels include L-type (Cav1.1, Cav1.2, Cav1.3, Cav1.4), T-type (Cav3.1, Cav3.2, Cav3.3), N-type (Cav2.2), P-type (Cav2.1), and R-type (Cav2.3).
Mammalian cells were treated with ICI-735 (0.1 μM, 1 μm, 10 μm, and 100 μm) to determine whether ICI-735 blocked the expression of cardiac ion channels. It was observed that ICI-735 was able to block the expression of both hERG and hCav1.2). Without wishing to be bound by any particular theory, it is believed that the blocks in hERG and calcium channels may cancel one another physiologically, but sodium channel effect may lead to changes in membrane potential.

[1] = system: BALB/c mice, Af-induced allergic airway inflammation; experiment: Bronchoalveolar lavage (BAL) analysis for cell count and cytokines in the asthma model; format: in vivo, mouse
Protocol: Lungs from the tested animals in Example 2 were lavaged with either a small volume (1 ml) of sterile PBS or a large volume (5 ml) of sterile saline, and total and differential cell counts were performed as described previously (Haczku et al., 1999 Am. J. Respir. Crit. Care Med. 159: 1638-1643; Haczku et al., 2000 Am. J. Respir. Crit. Care Med. 161: 952-960).
With respect to the murine model of allergen induced AHR, BALB/c mice were sensitized and challenged via intranasal instillation of Aspergillus fumigatus (Af). Two hours prior to each intranasal challenge, cohorts of five mice were administered intra peritonially (i.p.) with ICI-735 (1 mg/ml), dexamethasone (10 mg/ml). Four hours after the last allergen challenge, airway function was assessed by flexivent. Differential cytokine and immune cell abundance were also accessed in BAL fluid.

muscarinic receptor M3 = muscarinic receptor M3 (Homo sapiens, UniProt P20309); experiment: Receptor binding
[2] = Pharmacokinetics, plasma levels in mice; format: in vivo, mouse
Protocol: Mice were treated with either 1.0 mg/kg or 10 mg/kg of ICI-735 by way of intraperitoneal administration. The plasma levels of ICI-735 were measured at baseline and various time points following administration (FIG. 6). […] Without wishing to be bound by any particular theory, it is believed that the effectiveness of ICI-735 to treat asthma can be achieved with a low dose (e.g, 1.0 mg/kg dose).
Mice were also treated with either 2.5 mg/kg intravenously or 5 mg/kg orally of ICI-735. The plasma levels of ICI-735 were measured at baseline and various time points following administration (FIG. 7). […] It was determined that oral bioavailability was approximately 20%. Therefore, it is believed that ICI-735 administration orally at approximately 1 mg/kg/day is effective at reducing lung resistence in patients with asthma.

hERG = biological target: T1, hERG (Homo sapiens, UniProt Q12809); experiment: Cardiac ion channels expressed in mammalian cells; format: cell-based; conditions: 0.1 μM, 1 μm, 10 μm, and 100 μm
T1 construct: expressed in transfected cells
Excerpt: Voltage-gated K channels are activated by membrane depolarization. As with all voltage-gated ion channels, depolarization results in a conformational change in the S4 voltage sensor which contains positively charged amino acids. This conformational change triggers additional conformational changes leading to channel opening. Upon depolarization, these channels open, allowing the efflux of potassium from the cell, down its electrochemical gradient. They function in the heart and brain to repolarize the membrane potential and to terminate an action potential. A-type potassium currents are quickly inactivating potassium currents (eg, Kv4.2 and Kv1.4) and are important in the initial notch of repolarization in cardiac cells and the fast-spiking behavior of some neurons. Slowly inactivating channels provide more prolonged repolarization effects (eg, Kv1.5, Kv3.1, Kv2.1). hERG (human Ether-a-go-go Related Gene) channels are unusual voltage-gated potassium channels in that they are inwardly rectifying due to accelerated inactivation at positive voltages. hERG channels play a role in long-QT syndrome and block of hERG can precipitate torsades de pointe which may lead to fatal ventricular fibrillation. Screening of drugs for effects on hERG is desirable in investigational compounds. […]

AdrR2 receptor = experiment: Receptor binding

Sequence of 5-HT2A receptor (P28223 whole entry): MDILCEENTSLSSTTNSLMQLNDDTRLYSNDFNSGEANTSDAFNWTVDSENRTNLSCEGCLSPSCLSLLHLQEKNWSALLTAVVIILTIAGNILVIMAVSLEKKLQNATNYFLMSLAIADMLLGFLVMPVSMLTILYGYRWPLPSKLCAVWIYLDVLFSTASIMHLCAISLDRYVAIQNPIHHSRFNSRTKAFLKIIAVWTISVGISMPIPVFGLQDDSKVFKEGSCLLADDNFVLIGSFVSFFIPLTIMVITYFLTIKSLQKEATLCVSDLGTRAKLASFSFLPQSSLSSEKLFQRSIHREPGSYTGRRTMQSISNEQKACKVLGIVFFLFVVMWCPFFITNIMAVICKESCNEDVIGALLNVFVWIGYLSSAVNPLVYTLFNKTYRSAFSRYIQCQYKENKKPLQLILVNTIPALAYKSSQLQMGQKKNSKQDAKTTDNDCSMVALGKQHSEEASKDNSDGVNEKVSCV
Sequence of 5-HT1B receptor (P28222 whole entry): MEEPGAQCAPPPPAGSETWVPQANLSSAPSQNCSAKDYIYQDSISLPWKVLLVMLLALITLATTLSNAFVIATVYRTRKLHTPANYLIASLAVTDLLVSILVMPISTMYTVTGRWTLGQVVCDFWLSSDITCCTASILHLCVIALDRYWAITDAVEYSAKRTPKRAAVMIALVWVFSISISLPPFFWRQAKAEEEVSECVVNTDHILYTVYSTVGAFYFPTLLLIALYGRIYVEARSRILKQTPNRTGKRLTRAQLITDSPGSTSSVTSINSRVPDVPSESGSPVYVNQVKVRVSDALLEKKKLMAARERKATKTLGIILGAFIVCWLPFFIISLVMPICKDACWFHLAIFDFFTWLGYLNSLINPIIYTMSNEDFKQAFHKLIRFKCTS
Sequence of muscarinic receptor M3 (P20309 whole entry): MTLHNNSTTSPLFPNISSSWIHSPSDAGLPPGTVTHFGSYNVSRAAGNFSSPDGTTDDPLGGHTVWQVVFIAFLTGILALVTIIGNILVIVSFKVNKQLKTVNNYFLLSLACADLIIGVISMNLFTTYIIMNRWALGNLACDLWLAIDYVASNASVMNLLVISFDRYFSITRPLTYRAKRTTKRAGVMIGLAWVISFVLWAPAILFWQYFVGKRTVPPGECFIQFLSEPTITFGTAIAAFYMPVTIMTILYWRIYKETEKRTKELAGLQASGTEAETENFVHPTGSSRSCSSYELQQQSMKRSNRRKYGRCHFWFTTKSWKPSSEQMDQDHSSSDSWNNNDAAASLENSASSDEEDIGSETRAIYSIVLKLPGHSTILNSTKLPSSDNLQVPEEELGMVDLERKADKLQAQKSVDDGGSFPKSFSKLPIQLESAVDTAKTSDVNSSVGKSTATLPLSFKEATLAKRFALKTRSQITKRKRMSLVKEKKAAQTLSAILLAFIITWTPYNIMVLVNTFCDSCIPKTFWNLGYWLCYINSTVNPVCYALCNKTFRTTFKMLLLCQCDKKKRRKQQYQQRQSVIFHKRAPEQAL
Sequence of 5-HT7 receptor (P34969 whole entry): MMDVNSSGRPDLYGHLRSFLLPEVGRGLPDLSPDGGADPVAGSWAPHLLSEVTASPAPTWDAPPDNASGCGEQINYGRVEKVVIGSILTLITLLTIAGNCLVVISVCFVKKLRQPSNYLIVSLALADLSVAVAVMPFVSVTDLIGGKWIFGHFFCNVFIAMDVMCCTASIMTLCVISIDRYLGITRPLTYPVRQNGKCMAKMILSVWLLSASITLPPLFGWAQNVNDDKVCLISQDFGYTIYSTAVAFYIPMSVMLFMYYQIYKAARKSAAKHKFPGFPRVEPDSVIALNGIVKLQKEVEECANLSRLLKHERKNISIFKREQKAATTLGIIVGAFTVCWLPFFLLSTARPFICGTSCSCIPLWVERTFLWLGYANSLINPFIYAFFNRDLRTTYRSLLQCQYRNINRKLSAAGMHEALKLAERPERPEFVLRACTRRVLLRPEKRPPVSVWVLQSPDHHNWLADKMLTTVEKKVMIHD
Sequence of hCav1.2 (Q13936 whole entry): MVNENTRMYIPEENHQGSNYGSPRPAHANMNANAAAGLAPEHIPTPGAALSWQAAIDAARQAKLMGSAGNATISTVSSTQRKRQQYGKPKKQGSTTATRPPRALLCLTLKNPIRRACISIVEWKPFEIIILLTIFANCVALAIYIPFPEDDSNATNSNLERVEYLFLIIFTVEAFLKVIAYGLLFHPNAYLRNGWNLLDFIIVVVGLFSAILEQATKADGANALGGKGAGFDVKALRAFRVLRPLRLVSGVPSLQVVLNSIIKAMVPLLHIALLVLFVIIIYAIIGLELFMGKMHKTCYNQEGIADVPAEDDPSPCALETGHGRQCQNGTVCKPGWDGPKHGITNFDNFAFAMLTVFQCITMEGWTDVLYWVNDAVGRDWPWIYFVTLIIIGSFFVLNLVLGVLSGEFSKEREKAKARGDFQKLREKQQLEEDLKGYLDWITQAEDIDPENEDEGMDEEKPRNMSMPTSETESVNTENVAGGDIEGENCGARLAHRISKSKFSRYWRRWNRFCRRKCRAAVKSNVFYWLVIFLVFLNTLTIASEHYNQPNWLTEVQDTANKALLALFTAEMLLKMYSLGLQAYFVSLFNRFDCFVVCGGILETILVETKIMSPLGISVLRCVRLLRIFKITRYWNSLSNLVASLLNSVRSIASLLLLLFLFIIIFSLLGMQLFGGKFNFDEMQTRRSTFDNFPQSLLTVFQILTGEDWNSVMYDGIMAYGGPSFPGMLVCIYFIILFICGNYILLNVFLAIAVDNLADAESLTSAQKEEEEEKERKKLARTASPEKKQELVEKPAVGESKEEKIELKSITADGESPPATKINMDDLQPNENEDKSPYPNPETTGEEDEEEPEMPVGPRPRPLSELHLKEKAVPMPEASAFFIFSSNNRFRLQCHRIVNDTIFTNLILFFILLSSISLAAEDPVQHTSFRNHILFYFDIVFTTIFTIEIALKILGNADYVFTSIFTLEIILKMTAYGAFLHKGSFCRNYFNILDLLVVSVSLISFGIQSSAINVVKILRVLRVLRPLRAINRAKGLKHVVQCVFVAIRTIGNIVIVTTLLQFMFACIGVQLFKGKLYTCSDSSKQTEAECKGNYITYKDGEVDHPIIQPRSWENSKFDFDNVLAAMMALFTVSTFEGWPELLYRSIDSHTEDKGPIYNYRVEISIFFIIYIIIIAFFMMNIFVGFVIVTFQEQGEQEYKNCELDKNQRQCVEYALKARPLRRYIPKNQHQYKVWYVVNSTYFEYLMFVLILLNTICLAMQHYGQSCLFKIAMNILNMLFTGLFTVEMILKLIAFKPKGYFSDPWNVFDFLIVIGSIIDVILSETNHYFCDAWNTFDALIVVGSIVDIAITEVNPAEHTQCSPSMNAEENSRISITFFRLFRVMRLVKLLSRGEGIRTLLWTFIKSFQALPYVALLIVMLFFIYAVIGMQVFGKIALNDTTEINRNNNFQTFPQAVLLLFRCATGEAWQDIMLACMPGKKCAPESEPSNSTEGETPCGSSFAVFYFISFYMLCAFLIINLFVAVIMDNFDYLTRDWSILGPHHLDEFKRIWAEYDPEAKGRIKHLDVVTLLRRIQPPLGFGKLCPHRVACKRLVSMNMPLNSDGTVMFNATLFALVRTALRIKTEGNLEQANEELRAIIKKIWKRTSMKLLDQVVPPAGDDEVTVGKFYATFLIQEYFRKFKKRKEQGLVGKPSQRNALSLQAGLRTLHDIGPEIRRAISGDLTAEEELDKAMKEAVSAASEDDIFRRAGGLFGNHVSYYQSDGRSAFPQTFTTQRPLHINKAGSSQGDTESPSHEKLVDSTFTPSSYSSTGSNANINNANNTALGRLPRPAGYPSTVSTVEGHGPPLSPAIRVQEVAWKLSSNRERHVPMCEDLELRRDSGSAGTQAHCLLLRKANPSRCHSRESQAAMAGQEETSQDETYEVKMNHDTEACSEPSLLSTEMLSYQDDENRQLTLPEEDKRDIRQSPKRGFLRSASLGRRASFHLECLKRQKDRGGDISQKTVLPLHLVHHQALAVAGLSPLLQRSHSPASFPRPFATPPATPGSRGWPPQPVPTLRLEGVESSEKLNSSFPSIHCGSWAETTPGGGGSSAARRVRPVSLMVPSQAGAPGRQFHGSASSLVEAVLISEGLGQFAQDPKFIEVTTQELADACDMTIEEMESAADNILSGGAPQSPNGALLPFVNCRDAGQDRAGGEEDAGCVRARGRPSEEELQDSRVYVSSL
Sequence of hCav1.2 (Q08289 whole entry partner): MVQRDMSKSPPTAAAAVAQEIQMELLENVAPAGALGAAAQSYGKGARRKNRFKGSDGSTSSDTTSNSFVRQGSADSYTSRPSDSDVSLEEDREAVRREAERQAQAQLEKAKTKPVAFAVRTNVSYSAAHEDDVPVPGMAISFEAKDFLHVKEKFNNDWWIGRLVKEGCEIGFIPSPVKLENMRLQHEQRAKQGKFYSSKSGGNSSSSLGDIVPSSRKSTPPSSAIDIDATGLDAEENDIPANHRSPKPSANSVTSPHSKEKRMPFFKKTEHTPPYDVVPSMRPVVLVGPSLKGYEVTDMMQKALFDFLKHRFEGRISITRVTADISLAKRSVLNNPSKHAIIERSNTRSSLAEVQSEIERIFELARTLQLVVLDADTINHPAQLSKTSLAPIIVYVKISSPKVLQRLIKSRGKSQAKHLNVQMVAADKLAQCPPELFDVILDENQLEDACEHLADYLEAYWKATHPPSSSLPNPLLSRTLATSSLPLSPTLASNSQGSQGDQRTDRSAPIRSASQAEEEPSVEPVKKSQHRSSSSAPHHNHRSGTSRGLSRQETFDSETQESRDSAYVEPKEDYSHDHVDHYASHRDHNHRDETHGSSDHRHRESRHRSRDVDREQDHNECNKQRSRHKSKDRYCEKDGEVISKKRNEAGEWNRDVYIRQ

## NCC(=O)NCCN1CCN(CCCN2c3ccccc3Sc3ccc(C(F)(F)F)cc32)CC1 [ICI-735]
5-HT7 receptor
  binding to 5-HT7 receptor as compared to fluphenazine: significant increase activity; also recorded: increased binding
5-HT2A receptor
  binding to 5-HT2A receptor as compared to fluphenazine: decrease activity; also recorded: decreased binding
5-HT1B receptor
  binding to 5-HT1B receptor as compared to fluphenazine: significant increase activity; also recorded: increased binding
hCav1.2
  block of hCav1.2: able to block
[1]; Af-sensitized mice
  cytokine production in BAL: little effect; also recorded: no significant effects
[1]; asthmatic animals, treated vs untreated
  total number of cells / immune cell infiltration in BAL: not a significant difference; also recorded: little effect; also recorded: no significant effects
Muscarinic receptor M3
  binding to muscarinic receptor M3: weak binding; also recorded: weak or undetectable
[2]
  plasma levels after oral 5 mg/kg dose versus intravenous 2.5 mg/kg dose: comparable
[2]; intraperitoneal
  plasma levels after 1.0 mg/kg dose versus 10 mg/kg dose: comparable
[2]; mouse, plasma, oral, 5 mg/kg orally vs 2.5 mg/kg intravenously
  bioavailability: ~20%
hERG
  block of hERG: able to block
AdrR2 receptor
  binding to AdrR2 receptor: does not bind; also recorded: weak or undetectable
